The experiment deals with urate crystal induced synovitis of the stifle joint in dogs. Put plainly: Urate crystal induced synovitis of the stifle joint in dogs, force plate analysis. In kind it is in vivo, dog. To be noted: for Z peak force of the injected rear leg, percent of pre-values, Mean: six dogs. From the text: Objective: The objective of this study is to evaluate the analgesic and anti-inflammatory effect of a single dose of COMPOUND A using a model of urate crystal induced synovitis of the stifle joint in dogs via kinetic gait analysis (force plate).
Animals: A total of six Beagle dogs (4 males and 2 females) aged between 2 and 9 years and weighing 13 to 15.8 kg are recruited for this study. The dogs are housed in groups of two in light and temperature controlled pens. Each dogs is offered 150-300 g dry pellet food once a day in the morning. Water is available ad libitum through nipple drinkers.
Acute synovitis model: In this study, acute but reversible arthritis is induced by intra-articular (left or right stifle joint) injection of a saline (NaCl 0.9%) suspension containing 15 mg of monosodium urate crystals.
Intra-articular injections: Dogs are sedated with medetomidine (40 microg/kg, i.v.). The left of right stifle joint is clipped and prepared aseptically for intrasynovial injection. A 20-gauge needle is inserted lateral to the patellar ligament and introduced into the articular space. To ensure correct placement of the needle, a small amount of synovial fluid is aspirated with an empty 2 ml syringe. Then, approximately 2 ml of the monosodium urate suspension is injected in the joint cavity through the previously placed needle. Sedation is then antagonized with injection of atipamezol (40 μg/kg, i.v.). Dogs are then brought back to their pens for approximately 3 hours. Usually, after this period, the lameness induced by the injection of the monosodium urate crystals suspension is developed to a point where the dogs become non-weight-bearing on the injected leg during standing, walking and trotting. If at this time the dog's lameness grade is not sufficient, the dogs are excluded from this part of the trial.
Treatments: According to the protocol, both treatments are administered via the oral route approximately 3 hours after the injection of the monosodium urate crystals suspension, and only to the dogs that developed a high-grade lameness. For part 1, half of the dogs are allocated to the COMPOUND A-treated group and the other dogs are allocated to the control group. For part 2, treatments are crossed, so that dogs that are treated with COMPOUND A in part 1 are administered the placebo treatment, and vice versa. The treatments are administered at the doses of 0 mg/kg (placebo) and 2 mg/kg. COMPOUND A is mixed to a placebo formulation (micro-emulsion vehicle without active ingredient) just before administration. The appropriate volumes based on the dogs' bodyweights are given per os with syringes. Thereafter, all syringes are rinsed with NaCl 0.9% and applied to the dogs. The control dogs receive 10 ml of the identical placebo formulation.
Force plate analysis: A biomechanical platform (OR6-6-1000, Advanced Mechanical Technologies Inc., Watertown, Mass.) that measures 3 dimensional forces and impulses is used for our study. The dogs are trotted over the force plate 1, 2, 3, 4 and 6 hours after administration of the treatments to obtain data of vertical forces and impulses of the affected limb. Baseline values included force plate data obtained the day before the induction of lameness and are set as 100% of the dog's capacity. In order to minimize the effect of inter-individual variation we choose to calculate and express the measured data as percentage of the baseline values. By use of a software (Acquire Software 7.20e, Robert Wells, Mich. State University, East Lansing, Mich.) installed with the force plate and a computer, the vertical peak force (ZpkF) is measured. All data are normalized to the bodyweight of the dogs. Data on other ground reaction forces (e.g. vertical impulse, braking and propulsion peak forces) are also recorded and stored but not analyzed. Data from 5 to 6 valid trials of the injected limb at a given measurement time point are averaged and expressed as percentage of the pre-values. […]

Consider one molecule from US8258128B2, “Organic compounds” (Novartis AG, priority 2006, dated 2012).

Values joined by “and” are separate entries in the source; they are usually repeats but may differ in a detail not shown here. Equal values may be shown once.

As to `COC1=Nc2cc(Cl)ccc2/C(=C/C(=O)O)c2sc(Cl)cc21` [COMPOUND A, [2,7-Dichloro-10-methoxy-3-thia-9-aza-benzo[f]azulen-(4Z)-ylidene]-acetic acid], the “Z peak force of the injected rear leg, percent of pre-values, individual dogs” value was 0.0% (2 mg/kg p.o., T + 1 H); 0.0% (5×) and 65.8% (2 mg/kg p.o., T + 2 H); 86.7% and 93.8% and 71.9% and 79.1% and 0.0% (2×) (2 mg/kg p.o., T + 3 H); 80.9% and 87.1% and 103.1% and 82.5% and 58.2% and 0.0% (2 mg/kg p.o., T + 4 H); 78.5% and 106.1% and 87.7% and 85.2% and 83.7% (2 mg/kg p.o., T + 6 H); 100.0% (Prevs (day before induction of lameness, set as 100%), 2 mg/kg p.o. group, dogs 519, 525, 652, 664, 2201, 2207). For the same molecule, the “Z peak force of the injected rear leg, percent of pre-values, Mean” value is, setting by setting: (2 mg/kg p.o., T + 1 H) 0.0%; (2 mg/kg p.o., T + 2 H) 11.0%; (2 mg/kg p.o., T + 3 H) 55.2%; (2 mg/kg p.o., T + 4 H) 68.6%; (2 mg/kg p.o., T + 6 H) 91.2%; (Prevs (set as 100%), 2 mg/kg p.o. group) 100.0%.
